molecular target: T1, chimeric human H3 receptor (Homo sapiens, UniProt Q9Y5N1); assay: Chimeric human H3 receptor GTP binding assay (agonist-stimulated GTP-gamma35S binding, Example 7); type: biochemical; details: assay of Example 7; "*" in Ki of Table II
T1 construct: made in house; host or cells: Sf9 insect cells (baculovirus); P2 membrane preparation
Summary of the method: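 Sf9 membranes co-expressing chimeric human H3 receptor and heterotrimeric G-protein, 35 μg/tube, in pH 7.4 Tris buffer with 10 μM GDP. Test compounds (10^−10–10^−6 M) competed against 1 μM histamine, […] GTP-gamma35S, 60 min at room temperature. Filter-bound radioactivity counted; IC50 converted to Ki by Cheng-Prusoff. Agonism/inverse agonism tested without histamine (EC50).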

T1 sequence (Q9Y5N1 with tags, fused parts or gaps): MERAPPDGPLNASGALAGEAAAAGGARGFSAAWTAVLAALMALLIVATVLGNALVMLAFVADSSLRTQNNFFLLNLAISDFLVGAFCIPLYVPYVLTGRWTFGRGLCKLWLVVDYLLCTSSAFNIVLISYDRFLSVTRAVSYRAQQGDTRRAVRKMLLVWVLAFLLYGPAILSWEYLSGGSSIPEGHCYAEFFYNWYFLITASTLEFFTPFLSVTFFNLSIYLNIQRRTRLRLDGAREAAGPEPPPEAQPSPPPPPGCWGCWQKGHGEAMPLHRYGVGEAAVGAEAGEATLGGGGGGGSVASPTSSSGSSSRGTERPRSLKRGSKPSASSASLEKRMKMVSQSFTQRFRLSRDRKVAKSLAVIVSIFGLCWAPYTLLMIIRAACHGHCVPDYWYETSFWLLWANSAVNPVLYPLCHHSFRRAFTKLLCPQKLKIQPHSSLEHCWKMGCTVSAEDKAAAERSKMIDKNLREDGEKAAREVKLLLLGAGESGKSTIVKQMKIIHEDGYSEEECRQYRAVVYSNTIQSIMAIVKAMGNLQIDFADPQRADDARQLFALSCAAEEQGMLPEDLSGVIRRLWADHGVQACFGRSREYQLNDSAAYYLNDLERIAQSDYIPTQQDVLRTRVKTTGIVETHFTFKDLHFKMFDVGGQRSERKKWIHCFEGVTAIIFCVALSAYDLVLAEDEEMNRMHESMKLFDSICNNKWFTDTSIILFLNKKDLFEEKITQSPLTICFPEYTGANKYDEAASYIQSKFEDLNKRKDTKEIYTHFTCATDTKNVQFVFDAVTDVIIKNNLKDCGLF

Row | Ki [nM] | Structure (SMILES)
1 | < 1000 | CCCc1ccc(-c2nc3c(s2)CN(CC(=O)N2CCN(C4CCC4)CC2)CC3)cc1 [Compound 312, 5-[2-(4-cyclobutylpiperazin-1-yl)-2-oxoethyl]-2-(4-propylphenyl)-4,5,6,7-tetrahydro[1,3]thiazolo [5,4-c]pyridine]
2 | < 1000 | CCc1cccc(-c2nc3c(s2)CN(CC(=O)N2CCN(C4CCC4)CC2)CC3)c1 [Compound 313, 5-[2-(4-cyclobutylpiperazin-1-yl)-2-oxoethyl]-2-(3-ethylphenyl)-4,5,6,7-tetrahydro[1,3]thiazolo [5,4-c]pyridine]
3 | < 1000 | CC(C)(C)c1ccc(-c2nc3c(s2)CN(CC(=O)N2CCN(C4CCC4)CC2)CC3)cc1 [Compound 314, 2-(4-tert-butylphenyl)-5-[2-(4-cyclobutylpiperazin-1-yl)-2-oxoethyl]-4,5,6,7-tetrahydro[1,3]thiazolo [5,4-c]pyridine]
4 | < 1000 | COc1cccc(-c2nc3c(s2)CN(CC(=O)N2CCN(C4CCC4)CC2)CC3)c1 [Compound 315, 5-[2-(4-cyclobutylpiperazin-1-yl)-2-oxoethyl]-2-(3-methoxyphenyl)-4,5,6,7-tetrahydro[1,3]thiazolo [5,4-c]pyridine]
5 | < 1000 | O=C(CN1CCc2nc(-c3ccc(OC(F)(F)F)cc3)sc2C1)N1CCN(C2CCC2)CC1 [Compound 316, 5-[2-(4-cyclobutylpiperazin-1-yl)-2-oxoethyl]-2-[4-(trifluoromethoxy)phenyl]-4,5,6,7-tetrahydro[1,3]thiazolo [5,4-c]pyridine]
6 | < 1000 | CCOc1cccc(-c2nc3c(s2)CN(CC(=O)N2CCN(C4CCC4)CC2)CC3)c1 [Compound 317, 5-[2-(4-cyclobutylpiperazin-1-yl)-2-oxoethyl]-2-(3-ethoxyphenyl)-4,5,6,7-tetrahydro[1,3]thiazolo [5,4-c]pyridine]
7 | < 1000 | O=C(CN1CCc2nc(-c3ccc(Oc4ccccc4)cc3)sc2C1)N1CCN(C2CCC2)CC1 [Compound 318, 5-[2-(4-cyclobutylpiperazin-1-yl)-2-oxoethyl]-2-(4-phenoxyphenyl)-4,5,6,7-tetrahydro[1,3]thiazolo [5,4-c]pyridine]
8 | < 1000 | O=C(CN1CCc2nc(-c3cccc(OC(F)(F)F)c3)sc2C1)N1CCN(C2CCC2)CC1 [Compound 319, 5-[2-(4-cyclobutylpiperazin-1-yl)-2-oxoethyl]-2-[3-(trifluoromethoxy)phenyl]-4,5,6,7-tetrahydro[1,3]thiazolo [5,4-c]pyridine]
9 | < 1000 | CSc1cccc(-c2nc3c(s2)CN(CC(=O)N2CCN(C4CCC4)CC2)CC3)c1 [Compound 320, 5-[2-(4-cyclobutylpiperazin-1-yl)-2-oxoethyl]-2-[3-(methylthio)phenyl]-4,5,6,7-tetrahydro[1,3]thiazolo [5,4-c]pyridine]
10 | < 1000 | COc1ccc(-c2ccc(-c3nc4c(s3)CN(CC(=O)N3CCN(C5CCC5)CC3)CC4)cc2)cc1 [Compound 321, 5-[2-(4-cyclobutylpiperazin-1-yl)-2-oxoethyl]-2-(4′-methoxybiphenyl-4-yl)-4,5,6,7-tetrahydro[1,3]thiazolo [5,4-c]pyridine]
11 | < 1000 | COc1ccc(-c2nc3c(s2)CN(CC(=O)N2CCN(C4CCC4)CC2)CC3)cc1F [Compound 322, 5-[2-(4-cyclobutylpiperazin-1-yl)-2-oxoethyl]-2-(3-fluoro-4-methoxyphenyl)-4,5,6,7-tetrahydro[1,3]thiazolo [5,4-c]pyridine]
12 | < 1000 | COc1cc(F)c(-c2nc3c(s2)CN(CC(=O)N2CCN(C4CCC4)CC2)CC3)cc1F [Compound 323, 5-[2-(4-cyclobutylpiperazin-1-yl)-2-oxoethyl]-2-(2,5-difluoro-4-methoxyphenyl)-4,5,6,7-tetrahydro[1,3]thiazolo [5,4-c]pyridine]
13 | < 1000 | COc1ccc2cc(-c3nc4c(s3)CN(CC(=O)N3CCN(C5CCC5)CC3)CC4)ccc2c1 [Compound 324, 5-[2-(4-cyclobutylpiperazin-1-yl)-2-oxoethyl]-2-(6-methoxy-2-naphthyl)-4,5,6,7-tetrahydro[1,3]thiazolo [5,4-c]pyridine]
14 | < 1000 | CC(C)Oc1cccc(-c2nc3c(s2)CN(CC(=O)N2CCN(C4CCC4)CC2)CC3)c1 [Compound 325, 5-[2-(4-cyclobutylpiperazin-1-yl)-2-oxoethyl]-2-(3-isopropoxyphenyl)-4,5,6,7-tetrahydro[1,3]thiazolo [5,4-c]pyridine]
15 | < 1000 | COc1cc(-c2nc3c(s2)CN(CC(=O)N2CCN(C4CCC4)CC2)CC3)cc(OC)c1OC [Compound 326, 5-[2-(4-cyclobutylpiperazin-1-yl)-2-oxoethyl]-2-(3,4,5-trimethoxyphenyl)-4,5,6,7-tetrahydro[1,3]thiazolo [5,4-c]pyridine]
16 | < 1000 | COc1ccc(-c2nc3c(s2)CN(CC(=O)N2CCN(C4CCC4)CC2)CC3)cc1 [Compound 327, 5-[2-(4-cyclobutylpiperazin-1-yl)-2-oxoethyl]-2-(4-methoxyphenyl)-4,5,6,7-tetrahydro[1,3]thiazolo [5,4-c]pyridine]

Row | Ki [nM] | Structure (SMILES)
17 | < 1000 | O=C(CN1CCc2nc(-c3ccc4c(c3)OCO4)sc2C1)N1CCN(C2CCC2)CC1 [Compound 328, 2-(1,3-benzodioxol-5-yl)-5-[2-(4-cyclobutylpiperazin-1-yl)-2-oxoethyl]-4,5,6,7-tetrahydro[1,3]thiazolo [5,4-c]pyridine]
18 | < 1000 | COc1ccc(-c2nc3c(s2)CN(CC(=O)N2CCN(C4CCC4)CC2)CC3)cc1OC [Compound 329, 5-[2-(4-cyclobutylpiperazin-1-yl)-2-oxoethyl]-2-(3,4-dimethoxyphenyl)-4,5,6,7-tetrahydro[1,3]thiazolo [5,4-c]pyridine]
19 | < 1000 | CCOc1ccc(-c2nc3c(s2)CN(CC(=O)N2CCN(C4CCC4)CC2)CC3)cc1 [Compound 330, 5-[2-(4-cyclobutylpiperazin-1-yl)-2-oxoethyl]-2-(4-ethoxyphenyl)-4,5,6,7-tetrahydro[1,3]thiazolo [5,4-c]pyridine]
20 | < 1000 | CN(C)c1ccc(-c2nc3c(s2)CN(CC(=O)N2CCN(C4CCC4)CC2)CC3)cc1 [Compound 331, 4-{5-[2-(4-cyclobutylpiperazin-1-yl)-2-oxoethyl]-4,5,6,7-tetrahydro[1,3]thiazolo [5,4-c]pyridin-2-yl}-N,N-dimethylaniline]
21 | < 1000 | O=C(CN1CCc2nc(-c3ccc4c(c3)OCCO4)sc2C1)N1CCN(C2CCC2)CC1 [Compound 332]
22 | < 1000 | COc1ccc(-c2nc3c(s2)CN(CC(=O)N2CCN(C4CCC4)CC2)CC3)cc1C [Compound 333, 5-[2-(4-cyclobutylpiperazin-1-yl)-2-oxoethyl]-2-(4-methoxy-3-methylphenyl)-4,5,6,7-tetrahydro[1,3]thiazolo [5,4-c]pyridine]
23 | < 1000 | CCCOc1ccc(-c2nc3c(s2)CN(CC(=O)N2CCN(C4CCC4)CC2)CC3)cc1 [Compound 334, 5-[2-(4-cyclobutylpiperazin-1-yl)-2-oxoethyl]-2-(4-propoxyphenyl)-4,5,6,7-tetrahydro[1,3]thiazolo [5,4-c]pyridine]
24 | < 1000 | COc1ccc(-c2nc3c(s2)CN(CC(=O)N2CCN(C4CCC4)CC2)CC3)c(C)c1 [Compound 335, 5-[2-(4-cyclobutylpiperazin-1-yl)-2-oxoethyl]-2-(4-methoxy-2-methylphenyl)-4,5,6,7-tetrahydro[1,3]thiazolo [5,4-c]pyridine]
25 | < 1000 | COc1ccccc1-c1nc2c(s1)CN(CC(=O)N1CCN(C3CCC3)CC1)CC2 [Compound 336, 5-[2-(4-cyclobutylpiperazin-1-yl)-2-oxoethyl]-2-(2-methoxyphenyl)-4,5,6,7-tetrahydro[1,3]thiazolo [5,4-c]pyridine]
26 | < 1000 | COc1ccc(Cl)cc1-c1nc2c(s1)CN(CC(=O)N1CCN(C3CCC3)CC1)CC2 [Compound 338, 2-(5-chloro-2-methoxyphenyl)-5-[2-(4-cyclobutylpiperazin-1-yl)-2-oxoethyl]-4,5,6,7-tetrahydro[1,3]thiazolo [5,4-c]pyridine]
27 | < 1000 | COc1ccc(OC)c(-c2nc3c(s2)CN(CC(=O)N2CCN(C4CCC4)CC2)CC3)c1 [Compound 339, 5-[2-(4-cyclobutylpiperazin-1-yl)-2-oxoethyl]-2-(2,5-dimethoxyphenyl)-4,5,6,7-tetrahydro[1,3]thiazolo [5,4-c]pyridine]
28 | < 1000 | COc1ccc(-c2nc3c(s2)CN(CC(=O)N2CCN(C4CCC4)CC2)CC3)c(OC)c1 [Compound 340, 5-[2-(4-cyclobutylpiperazin-1-yl)-2-oxoethyl]-2-(2,4-dimethoxyphenyl)-4,5,6,7-tetrahydro[1,3]thiazolo [5,4-c]pyridine]
29 | < 1000 | CCOc1ccccc1-c1nc2c(s1)CN(CC(=O)N1CCN(C3CCC3)CC1)CC2 [Compound 341, 5-[2-(4-cyclobutylpiperazin-1-yl)-2-oxoethyl]-2-(2-ethoxyphenyl)-4,5,6,7-tetrahydro[1,3]thiazolo [5,4-c]pyridine]
30 | < 1000 | O=C(CN1CCc2nc(-c3cccc4c3oc3ccccc34)sc2C1)N1CCN(C2CCC2)CC1 [Compound 342, 5-[2-(4-cyclobutylpiperazin-1-yl)-2-oxoethyl]-2-dibenzo[b,d]furan-4-yl-4,5,6,7-tetrahydro[1,3]thiazolo [5,4-c]pyridine]
31 | < 1000 | COc1ccc(C)cc1-c1nc2c(s1)CN(CC(=O)N1CCN(C3CCC3)CC1)CC2 [Compound 344, 5-[2-(4-cyclobutylpiperazin-1-yl)-2-oxoethyl]-2-(2-methoxy-5-methylphenyl)-4,5,6,7-tetrahydro[1,3]thiazolo [5,4-c]pyridine]
32 | < 1000 | O=C(CN1CCc2nc(-c3ccc(F)c(Cl)c3)sc2C1)N1CCN(C2CCC2)CC1 [Compound 346, 2-(3-chloro-4-fluorophenyl)-5-[2-(4-cyclobutylpiperazin-1-yl)-2-oxoethyl]-4,5,6,7-tetrahydro[1,3]thiazolo [5,4-c]pyridine]

Reference: patent US20110082130A1 (LIGAND PHARMACEUTICALS, INC., priority 2006, published 2011)
